Measurements as given in article PMC12562324, “Surfactin Structural Variants Differentially Modulate Plant Immune Responses” (Biomolecules, 2025).

test system: Arabidopsis thaliana root protoplasts; experiment: NO burst in root protoplasts, DAF-DA probe; format: cell-based; conditions: 10 µM, fold change at 20 min vs mock; n = 12; Figure 3C; in roots Srf and Liche increased NO, Pumi had no impact
Experimental: Two-week-old Arabidopsis thaliana seedling roots (from 27 mg seeds) were collected and were cut into 1–2 mm segments and incubated in a protoplasting solution (20 mM MES pH 5.7, 0.4 M mannitol, 20 mM KCl, 10 mM CaCl2, 0.1% (w/v) BSA, 1.5% (w/v) cellulase R10 (Duchefa Biochemie, Haarlem, The Netherlands), 0.4% (w/v) macerozyme R10 (Duchefa Chimie)) for 3 h at room temperature and in the dark. After incubation, 1 mL of solution A (154 mM NaCl, 5 mM KCl, 125 mM CaCl2, 4 mM MES, pH = 5.7) was added inside. The suspension was agitated gently and filtered by a 70 µm pore filter to remove extra root debris. Filtered suspension was centrifuged at 850 g for 6 min at room temperature, and the pelleted protoplasts were rinsed three times with solution B (4 mM MES pH 5.7, 154 mM NaCl, 125 mM CaCl2, 5 mM KCl) before being resuspended in solution C (2 mM MES pH 5.7, 0.5 M mannitol, 20 mM KCl, 2 mM CaCl2) at a working concentration of 1–2 × 10^5 cells per mL. For the detection of intracellular NO, roots were processed as described above and 200 µL sterile water was replaced by 200 µL 5 μM DAF-DA in a buffered solution (10 mM Tris/HCl, pH = 7.4). Roots were incubated at room temperature for 1 h in the absence of light and then washed 3 times with Tris/HCl (10 mM, pH = 7.4). The fluorescence emitted by DAF-DA was detected by excitation at 495 nm and emission at 515 nm. Experiments where NO was measured after pretreatment with the calcium channel blocker or calcium chelator included an additional step where LaCl3 (10 mM; Merck Chemicals SA, Hoeilaart, Belgium) or EGTA (1 mM; Merck Chemicals SA, Hoeilaart, Belgium) was added three minutes before treatments. Data were processed as described above for ROS. For NO measurements in protoplasts, the suspension was incubated in the same conditions before being distributed (50 µL) in microplate wells and treated with the CLPs at a 10 µM final concentration or with 0.1% DMSO as a mock.

Row | Substance | NO burst in root protoplasts, trend compared to roots
1 | lichenysin | very similar trend
2 | pumilacidin | very similar trend
3 | surfactin [Srf] | very similar trend

test system: Arabidopsis thaliana Col-0 roots; experiment: [ROS]intra burst in roots, DCFH-DA fluorescent probe; format: cell-based; conditions: mix of homologues, 10 µM, fold change at 20 min vs mock (DMSO 0.1%); n = 9 from three independent experiments; Figure 2B,C
Experimental: For cytoplasmic hydrogen peroxide (reflecting cytosolic/intracellular ROS and referred to hereafter as [ROS]intra) measurement in roots, 15 mm long Arabidopsis thaliana root segments, isolated from different two-week-old plants, were placed in a well (one root/well) of a microplate (96 Flat Black-Greiner Bio-One^TM CellStar^TM, Thermo Fisher Scientific, Hampton, VA, USA) filled with sterile water. After overnight incubation, roots were treated with 50 µM DCFH-DA (dichloro-dihydro-fluorescein diacetate; ACROS Organics, Geel, Belgium) for 10 min in the dark and rinsed with PBS, and next, wells were filled with CLP/mock solution. Fluorescence measurements (excitation wavelength 492 nm, emission wavelength 530 nm) were conducted by a Spark® (Tecan, Männedorf, Switzerland) microplate reader, using nine readings per well. Data, expressed as relative fluorescence increase, were obtained by subtracting the fluorescence measured at the first time point from the fluorescence measured at each time point (with the first time point being taken as 0). The fluorescence fold increase was defined for each repeat as the ratio between the fluorescence increase obtained at one time point for treatments and the mean fluorescence increase obtained at the same time point in mock-treated tissues.

Row | Substance | [ROS]intra production in roots vs mock
4 | lichenysin | induced a significantly higher production of [ROS]intra
5 | pumilacidin | did not retain any significant triggering activity
6 | surfactin [Srf] | induced a significantly higher production of [ROS]intra

test system: protoplasts isolated from roots of Arabidopsis thaliana Col-0; experiment: [ROS]intra burst in root protoplasts, DCFH-DA; format: cell-based; conditions: 10 µM, fold increase in fluorescence at 5 min; n = 12 from three independent experiments; Figure 2D
Experimental: Two-week-old Arabidopsis thaliana seedling roots (from 27 mg seeds) were collected and were cut into 1–2 mm segments and incubated in a protoplasting solution (20 mM MES pH 5.7, 0.4 M mannitol, 20 mM KCl, 10 mM CaCl2, 0.1% (w/v) BSA, 1.5% (w/v) cellulase R10 (Duchefa Biochemie, Haarlem, The Netherlands), 0.4% (w/v) macerozyme R10 (Duchefa Chimie)) for 3 h at room temperature and in the dark. After incubation, 1 mL of solution A (154 mM NaCl, 5 mM KCl, 125 mM CaCl2, 4 mM MES, pH = 5.7) was added inside. The suspension was agitated gently and filtered by a 70 µm pore filter to remove extra root debris. Filtered suspension was centrifuged at 850 g for 6 min at room temperature, and the pelleted protoplasts were rinsed three times with solution B (4 mM MES pH 5.7, 154 mM NaCl, 125 mM CaCl2, 5 mM KCl) before being resuspended in solution C (2 mM MES pH 5.7, 0.5 M mannitol, 20 mM KCl, 2 mM CaCl2) at a working concentration of 1–2 × 10^5 cells per mL. For [ROS]intra measurements in protoplasts, protoplasts isolated from roots of Arabidopsis thaliana Col-0 plants were incubated for 10 min with 5 µM of DCFH-DA. Then, wells of black 96-well microplates (96 Flat Black-Greiner Bio-One^TM CellStar^TM, Fischer Scientific) were loaded with 150 µL of protoplasts solution per well. After the addition of 50 µL of four-times-concentrated treatment, the fluorescence was recorded every minute using a microplate reader with an excitation filter at 485 ± 20 nm and emission filter at 535 ± 25 nm. The data were processed as for the roots.

Row | Substance | [ROS]intra burst in root protoplasts vs mock
7 | lichenysin | significant boosting activity
8 | pumilacidin | not active
9 | surfactin [Srf] | significant boosting activity

test system: Botrytis cinerea; experiment: Induced systemic resistance (ISR) against B. cinerea leaf infection after root treatment; format: in vivo; conditions: Arabidopsis thaliana Col-0, hydroponic, 10 µM at roots 24 h before leaf infection, scored 4 dpi vs mock (0.1% EtOH); n = 30 from two independent experiments; Figure 5
Experimental: Plants were grown for 4 weeks in hydroponic conditions in Araponics systems containing a nutrient solution (0.25% (v/v) FLORAMICRO®, 0.25% (v/v) FLORABLOOM®, 0.25% (v/v) FLORAGRO®; General Hydroponics®, in volume ratio 1:1:1, as recommended by the manufacturer), with a photoperiod of 12 h and a temperature of 22 °C. Plants were then transferred into 10 mL vials filled with fresh nutrient solution and treated at the root level with CLPs or ethanol (mock treatment) to obtain final concentrations of 10 µM and 0.1%, respectively. After incubation for 24 h, plants were inoculated with Botrytis cinerea (Helotiales: Sclerotiniaceae) as the conidia solution. Spores were collected from B. cinerea grown on PDA plates for 4 weeks using a solution composed of 1.75 g/L KH2PO4; 0.74 g/L MgSO4; 4 g/L glucose, and 0.02% (v/v) Tween 20. After spore collection, the concentration was adjusted to 5 × 10^5 spores per mL, and spores were incubated at 30 °C for eight hours. Inoculation was conducted by inoculating a drop of 3 µL of conidia solution onto seven leaves per plant and fifteen plants per treatment. The number of spreading lesions was evaluated 96 h post infection.

Row | Substance | Leaf infection by B. cinerea (disease level) after root treatment
10 | lichenysin | significantly reduced leaf infection
11 | pumilacidin | no disease reduction
12 | surfactin [Srf] | significantly reduced leaf infection
